We go through three compounds from patent US11413241B2, “Method for preparing a composition with a low dissolved oxygen content, comprising acetaminophen, and optionally one or more NSAIDs, and a composition obtained thereof” (Hyloris Developments SA, priority 2017, dated 2022).

The conditions of data set [1]: from literature; cited from earlier work.
Data set [2] can be described thus: Amount of acetaminophen at various points in time and different pH. The class given is physicochemical. The following applies: pH range 6.3-7.3, various points in time. From the text: The amount of acetaminophen was studied at varies points in time and for different pH's.
Data set [3] is described as follows: Dissolution/precipitation of sodium ibuprofen 2H2O alone in water at decreasing pH. The class given is physicochemical.
Data set [4] in a line: Dissolution of sodium ibuprofen 2H2O in the acetaminophen-ibuprofen formulation at varying pH. The class given is physicochemical.

Regarding `CC(=O)Nc1ccc(O)cc1` [acetaminophen, N-(4-hydroxyphenyl)acetamide], the “pH at which rate of degradation is minimal” value in data set [1] is given as about 6. In addition, in data set [2], the degradation of acetaminophen result is on record as “minimal degradation”.

Take `CC(C)Cc1ccc(C(C)C(=O)O)cc1` (stereo not shown) [ibuprofen]: the “pH at which precipitation is observed” value in data set [3] (3.85 mg/ml sodium ibuprofen 2H2O in water, pH gradually decreased) was 5.75. Also, the precipitation entry in data set [3] (pH 6, stored 1 month at 25° C.) is on record as “showed precipitation”; in data set [3] (pH 6.2, stored 1 month at 25° C.) it was “precipitation was absent”.

For `CC(C)Cc1ccc(C(C)C(=O)O)cc1` (stereo not shown) [sodium ibuprofen 2H2O], the Dissolved entry in data set [4] (in the formulation 3 mg/ml Acetaminophen 10 mg/ml Ibuprofen, pH 6.2) is “Yes”; in data set [4] (in the formulation 3 mg/ml Acetaminophen 10 mg/ml Ibuprofen, pH 6.3), “Yes”; in data set [4] (in the formulation 3 mg/ml Acetaminophen 10 mg/ml Ibuprofen, pH 6.4), “Yes”; in data set [4] (in the formulation 3 mg/ml Acetaminophen 10 mg/ml Ibuprofen, pH 6.6), “Yes”; in data set [4] (in the formulation 3 mg/ml Acetaminophen 10 mg/ml Ibuprofen, pH 7) it was “Yes”; in data set [4] (in the formulation Acetaminophen - Ibuprofen, 1 month, pH 6.2), “No”. Also, the Dissolved result is given as “Yes” in data set [4] (in the formulation Acetaminophen - Ibuprofen, 1 month, pH 6.3); “Yes” in data set [4] (in the formulation Acetaminophen - Ibuprofen, 1 month, pH 6.4); “Yes” in data set [4] (in the formulation Acetaminophen - Ibuprofen, 1 month, pH 6.6); “Yes” in data set [4] (in the formulation Acetaminophen - Ibuprofen, 1 month, pH 7); “Yes” in data set [4] (in the formulation Acetaminophen - Ibuprofen, 6 months, 25° C., pH 6.3); “Yes” in data set [4] (in the formulation Acetaminophen - Ibuprofen, 6 months, 25° C., pH 6.4). Besides, the Dissolved entry is reported as “Yes” in data set [4] (in the formulation Acetaminophen - Ibuprofen, 6 months, 25° C., pH 6.6); “Yes” in data set [4] (in the formulation Acetaminophen - Ibuprofen, 6 months, 25° C., pH 7); “No” in data set [3] (alone in water, pH 3); “No” in data set [3] (alone in water, pH 4); “No” in data set [3] (alone in water, pH 5); “No” in data set [3] (alone in water, pH 5.5). The Dissolved entry in data set [3] (alone in water, pH 5.8) was “Yes”; in data set [3] (alone in water, pH 6), “Yes”; in data set [3] (alone in water, pH 6.2), “Yes”; in data set [3] (alone in water, pH 6.4), “Yes”; in data set [3] (alone in water, pH 6.6), “Yes”; in data set [3] (alone in water, pH 6.8), “Yes”. Besides, the Dissolved entry is “Yes” in data set [3] (alone in water, pH 7); “Yes” in data set [3] (alone in water, pH 7.5); “No” in data set [3] (in water after 1 month storage at 25° C., pH 5.8); “No” in data set [3] (in water after 1 month storage at 25° C., pH 6); “Yes” in data set [3] (in water after 1 month storage at 25° C., pH 6.2); “Yes” in data set [3] (in water after 1 month storage at 25° C., pH 6.4). Also, the Dissolved result in data set [3] (in water after 1 month storage at 25° C., pH 6.6) is on record as “Yes”; in data set [3] (in water after 1 month storage at 25° C., pH 6.8) it was “Yes”; in data set [3] (in water after 1 month storage at 25° C., pH 7) it was “Yes”; in data set [3] (in water after 1 month storage at 25° C., pH 7.5), “Yes”. In addition, the pH of composition in data set [3] (3.85 mg/ml in water, before pH decrease) was determined as 8.80.
